Data taken from patent US20190046478A1, “BIOLOGICAL MARKER FOR IDENTIFYING CANCER PATIENTS FOR TREATMENT WITH A BIGUANIDE” (THE ROYAL INSTITUTION FOR THE ADVANCEMENT OF …, priority 2017, published 2019).
Like-named read-outs stand apart in the source and are kept apart here.

What was measured:
[1] = test system: Eμ-Myc lymphoma cells (control or +17˜92); assay: Tumor xenograft assay, survival of nude mice injected with lymphoma cells; assay type: in vivo, CD-1 nude mice; settings: drinking water ad lib, 0.9 mg/mL phenformin or 0.8 mg/mL Compound 1, FIG. 6B
Procedure: Lymphoma cells were resuspended in HBSS at a concentration of 5×10^6 cells/mL, and 10^6 cells/200 μL were injected intravenously into CD-1 nude mice (Charles River).

Eμ-Myc lymphoma cells = settings: for Protection of viability of +17˜92 cells by pyruvate supplementation, lower doses / Protection of viability of +17˜92 cells by pyruvate supplementation, higher concentrations: 1 mM pyruvate, FIG. 5D, 10C; for Protection of viability of +17˜92 cells by pyruvate supplementation, lower doses: 10 μM Compound 1 or 30 μM phenformin; for Protection of viability of +17˜92 cells by pyruvate supplementation, higher concentrations: 100 μM Compound 1 or 300 μM phenformin
Procedure: (§1) Eμ-Myc cells were cultured on a layer of irradiated Ink4a-null MEF feeder cells in DMEM and IMDM medium (50:50 mix) supplemented with 10% fetal bovine serum (FBS), 20000 U/mL penicillin, 7 mM streptomycin, 2 mM glutamine, and β-mercaptoethanol. Raji cells were cultured in RPMI medium supplemented with 10% FBS, 20000 U/mL penicillin, 7 mM streptomycin, and 2 mM glutamine. Cells were grown at 37° C. in a humidified atmosphere supplemented with 5% (v/v) CO2.
(§2) Cells were seeded at a density of 1×10^5 cells/mL in 3.5 cm dishes, and cell counts determined via trypan blue exclusion using a TC20 Automated Cell Counter (Biorad). For viability measurements, cells were stained with Fixable Viability Dye eFluor 780 (eBioscience), and analyzed using a Gallios flow cytometer (Beckman Coulter, Fullerton, Calif.) and FlowJo software (Tree Star, Ashland, Oreg.).

Eμ-Myc cells [2] = assay: Seahorse XF96 respirometry (OCR and ECAR); assay type: cell-based, mouse; settings: for Oxygen consumption of +17˜92 cells / Oxygen consumption of control cells: 100 μM phenformin or 10 μM Compound 1, after roughly four hours; for Oxygen consumption rate (OCR) / Extracellular acidification rate (ECAR): acute treatment, across a range of doses; for Oxygen consumption rate (OCR): FIG. 2A, 8A; for Extracellular acidification rate (ECAR): FIG. 2B, 8B; for IC50: after two hours treatment, read-out: Dose that produced a roughly 50% decrease in OCR from baseline
Procedure: 7.5×10^4 lymphoma cells were plated per well of an XF96 Seahorse plate in 140 μL of unbuffered DMEM containing 25 mM glucose and 2 mM glutamine, followed by centrifugation at 500×g for five minutes. Seahorse plates were pre-coated with poly-D-lysine (Sigma-Aldrich) to enhance cell adherence. XF assays consisted of sequential mix (3 min), pause (3 min), and measurement (5 min) cycles, allowing for determination of OCR and ECAR every […]. […] For media metabolite determination, cells were seeded at 1×10^5 cells/mL in 3.5 cm plates, and cultured for two days prior to harvesting medium. Culture medium was analyzed for extracellular metabolites (glucose and lactate) using a BioProfile Analyzer (NOVA Biomedical) and normalized to cell number.

AMPK = assay: Immunoblot for pAMPK (T172) and total AMPK; assay type: cell-based, mouse; settings: two hours, 100 μM phenformin or 10 μM Compound 1, FIG. 3C
From the text: Lymphoma cell lines were subjected to SDS-PAGE and immunoblotting using CHAPS and AMPK lysis buffers. Primary antibodies against β-actin, 4EBP (total, phospho-T36/47, and phospho-S65), rS6 (total and p S235/236), Raptor (total and pS792), and AMPKα (total and phospho-T172) were obtained from Cell Signaling Technology (Danvers, Mass.). Primary antibody against LKB1 (Ley 37D/G6) was obtained from Santa Cruz Biotechnology (Dallas, Tex., USA). For qPCR quantification of mature miRNAs, Qiazol was used isolate RNA, miRNEasy Mini kit was used to purify miRNAs and total mRNA, and cDNA synthesized using the miScript II RT kit (Qiagen). Quantitative PCR was performed using the SensiFAST SYBR Hi-ROX kit (Bioline) and an AriaMX Real-Time PCR system (Agilent Technologies). miScript primer assays (Qiagen) were used to detect mature miRNAs of the miR-17˜92 cluster, with miRNA expression normalized relative to U6 RNA levels.

Eμ-Myc cells [3] = assay: Mitochondrial ROS by MitoSox staining and flow cytometry; assay type: cell-based, mouse; settings: 2 hours, 100 μM phenformin or 10 μM Compound 1, FIG. 5A
From the text: Statistics for all figures are as follows: *, p<0.05; **, p<0.01; ***, p<0.001.

Eμ-Myc cells [4] = assay: GC-MS analysis of metabolite abundance and 13C-glutamine labelling; assay type: cell-based, mouse; settings: for 13C-glutamine incorporation into glutamate and α-ketoglutarate, +17˜92 versus treated control cells: 100 μM phenformin or 10 μM Compound 1, FIG. 4B; for Aspartate abundance: +17˜92 and control cells, 2 hours, 100 μM phenformin or 10 μM Compound 1, FIG. 4A
Procedure: Cellular metabolites were extracted and analyzed by GC-MS. […] Cells were washed twice with saline, then lysed in ice-cold 80% methanol and sonicated. For GC-MS analysis, D-myristic acid (750 ng/sample) was added to metabolite extracts as an internal standard prior to drying samples under a N2 stream. […] The oven program for all metabolite analyses started at 60° C. held for 1 min, then increasing at a rate of 10° C./min until 320° C. Bake-out was at 320° C. for 10 min. […] Mass isotopomer distribution for TCA cycle intermediates was determined using a custom algorithm developed at McGill University. After correction for natural ^13C abundances, a comparison was made between non-labeled (^12C) and ^13C-labeled abundances for each metabolite. Metabolite abundance was expressed relative to the internal standard (D-myristic acid) and normalized to cell number.

Eμ-Myc cells [5] = assay: LC-MS analysis of GSH/GSSG, NADP+/NADPH and NAD+/NADH ratios; assay type: cell-based, mouse; settings: 2 hours
Procedure: Aqueous supernatants were dried by vacuum centrifugation with sample temperature maintained at −4° C. (Labconco, Kansas City Mo., USA). Pellets were subsequently resuspended in 25 μL of H2O as the injection buffer. Chromatographic separation was performed on a Scherzo SM-C18 column 3 μm, 3.0×150 mm (Imtakt Corp, JAPAN). The chromatographic gradient started at 100% mobile phase A (0.2% formic acid in water) with a 2 min hold followed with a 6 min gradient to 80% B (0.2% formic acid in MeOH) at a flow rate of 0.4 mL/min. This was followed by a 5 min hold time at 100% mobile phase B and a subsequent re-equilibration time (6 min) before next injection. […] Analyte ionization was accomplished using ESI in positive ionization mode. […] MS data were acquired in full scan mode mass range: m/z 100-1000; scan time: 1.4 s; data collection: centroid and profile modes. […] For all LC/MS analyses, 1 μL of sample was injected. The column temperature was maintained at 10° C. Data were quantified by integrating the area under the curve of each compound using MassHunter Quant (Agilent Technologies, Santa Clara, Calif., USA). Each metabolite's accurate mass ion was extracted (EIC) using a 10 ppm window. Relative concentrations were determined from external calibration curves.

Raji cells = assay: Cell viability assay in Raji lymphoma cells; assay type: cell-based, human; settings: 48 hours, FIG. 3B
Procedure: as §1, §2

[6] = 100 μM phenformin or 10 μM Compound 1, FIG. 5C

Row | Compound | Lifespan of mice bearing +17˜92 cells [1] | Protection of viability of +17˜92 cells by pyruvate supplementation, lower doses (Eμ-Myc lymphoma cells; 48 hours) | Protection of viability of +17˜92 cells by pyruvate supplementation, higher concentrations (Eμ-Myc lymphoma cells; 48 hours) | Oxygen consumption of +17˜92 cells (Eμ-Myc cells [2]) | Oxygen consumption of control cells (Eμ-Myc cells [2]) | Oxygen consumption rate (OCR) (Eμ-Myc cells [2]) | Extracellular acidification rate (ECAR) (Eμ-Myc cells [2]) | AMPK phosphorylation in +17˜92 cells (AMPK) | Mitochondrial ROS in +17˜92 cells (Eμ-Myc cells [3]) | Mitochondrial ROS levels in control cells (Eμ-Myc cells [3]) | 13C-glutamine incorporation into glutamate and α-ketoglutarate, +17˜92 versus treated control cells (Eμ-Myc cells [4]) | Aspartate abundance (Eμ-Myc cells [4]) | Viability of Raji cells with or without miR-17˜92 overexpression over a range of doses (Raji cells) | further results
1 | N=C(NC(=N)N1CCCC1)Nc1cccc(OC(F)(F)F)c1 [Compound 1, N1-pyrrolidine-N5-(3-trifluoromethoxy)phenyl biguanide] | significantly prolonged the lifespan | some protective benefit | not apparent | never eliminated | effectively non-respiring | decreased | commensurate increases | largely unaffected | significantly increased mitochondrial ROS | neither phenformin nor Compound 1 treatment were sufficient to increase | more significant reduction | reduced aspartate abundance | followed a similar trend, albeit at higher doses | Viability of +17˜92 cells at doses not toxic in control cells (Eμ-Myc lymphoma cells; 48 hours, FIG. 3A): viability of +17˜92 cells was affected; IC50 (Eμ-Myc cells [2]): 10 µM; Speed of OCR reduction versus equivalent doses of phenformin (Eμ-Myc cells [2]; higher doses, 5 min post-injection, FIG. 2C): more rapid reductions in OCR; Extent of OCR reduction versus equivalent doses of phenformin (Eμ-Myc cells [2]; lower doses, longer time periods (260 min), FIG. 2D): more profound reductions in OCR; GSH/GSSG ratio (Eμ-Myc cells [5]; 100 μM phenformin or 10 μM Compound 1, FIG. 5B): no significant changes; NADP+/NADPH ratio in +17˜92 cells (Eμ-Myc cells [5]; [6]): increase their NADP+/NADPH ratio; NADP+/NADPH ratio in control cells (Eμ-Myc cells [5]; [6]): not control cells
2 | [H]/N=C(/N)N/C(=N/[H])NCCc1ccccc1 [phenformin, reference compound] | significantly prolonged the lifespan | some protective benefit | not apparent | never eliminated | effectively non-respiring | decreased | commensurate increases | reduced AMPK phosphorylation than control cells | approached significance | neither phenformin nor Compound 1 treatment were sufficient to increase | not | reduced aspartate abundance | followed a similar trend, albeit at higher doses | Viability of Δ/Δ (miR-17˜92 deleted) versus fl/fl cells (Eμ-Myc lymphoma cells; 48 hour treatment, FIG. 1A): more resistant; Sensitivity (viability) of +17˜92 versus control Eμ-Myc lymphoma cells (Eμ-Myc lymphoma cells; 48 hours, FIG. 1C): significantly more sensitive than controls; IC50 (Eμ-Myc cells [2]; Mus musculus, 2 h): 100 µM
